Where a name gives a salt, the structure may show the parent alone.
molecular target: T1, human 5-HT3 serotonin receptors (Homo sapiens, UniProt P46098); assay: [3H]BRL 43694 competition binding assay (Cerep); settings: not given
T1 sequence (P46098 24-478): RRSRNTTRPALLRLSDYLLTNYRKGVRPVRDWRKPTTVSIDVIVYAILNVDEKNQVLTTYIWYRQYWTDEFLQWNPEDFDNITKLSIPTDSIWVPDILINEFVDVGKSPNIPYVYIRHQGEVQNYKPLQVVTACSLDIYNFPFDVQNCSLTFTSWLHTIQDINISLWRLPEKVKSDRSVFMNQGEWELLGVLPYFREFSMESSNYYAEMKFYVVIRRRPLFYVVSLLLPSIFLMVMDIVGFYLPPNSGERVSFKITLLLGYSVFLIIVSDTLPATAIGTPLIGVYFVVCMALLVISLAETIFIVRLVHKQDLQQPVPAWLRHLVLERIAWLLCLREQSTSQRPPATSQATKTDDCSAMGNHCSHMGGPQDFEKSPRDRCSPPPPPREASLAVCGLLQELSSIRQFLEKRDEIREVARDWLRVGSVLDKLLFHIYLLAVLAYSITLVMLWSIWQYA

In order of falling Ki:
1. Clc1ccc2c(NC3C4CCN(CC4)C34CC4)noc2c1 (racemic) [rac-16, 6-chloro-N-(1′-azaspiro[cyclopropane-1,2′-bicyclo[2.2.2]octan]-3′-yl)benzo[d]isoxazol-3-amine hydrochloride]  1800 nM
2. Clc1ccc2c(N[C@@H]3C4CCN(CC4)C34CC4)noc2c1Cl [(R)-19, (R)-6,7-dichloro-N-(1′-azaspiro[cyclopropane-1,2′-bicyclo[2.2.2]octan]-3′-yl)benzo[d]isoxazol-3-amine hydrochloride]  100 nM
3. Cc1ccc2c(N[C@@H]3C4CCN(CC4)C34CC4)noc2c1Cl [Compound (R)-28, (R)-7-chloro-6-methyl-N-(1′-azaspiro[cyclopropane-1,2′-bicyclo[2.2.2]octan]-3′-yl)benzo[d]isoxazol-3-amine hydrochloride]  66 nM

same assay, conditions: CHO cell membranes expressing human 5-HT3 receptors, [3H]BRL 43694, 120 min at room temperature; read-out: h-5HT3 Ki

`CC1(C)C(Nc2noc3cc(Cl)ccc23)C2CCN1CC2` (racemic) [rac-1, 6-chloro-N-(2,2-dimethylquinuclidin-3-yl)benzo[d]isoxazol-3-amine hydrochloride] and `CC1(C)[C@H](Nc2noc3cc(Cl)ccc23)C2CCN1CC2` [Compound (R)-1, (R)-6-chloro-N-(2,2-dimethylquinuclidin-3-yl)benzo[d]isoxazol-3-amine] are within 1.5-fold of each other in Ki: 2700 nM for the first, 2600 nM for the second.

Going from `CC1(C)[C@H](Nc2noc3c(F)c(Cl)ccc23)C2CCN1CC2` [Compound (R)-2, (R)-6-chloro-N-(2,2-dimethylquinuclidin-3-yl)-7-fluorobenzo[d]isoxazol-3-amine hydrochloride] to `CC1(C)[C@H](Nc2noc3c(Cl)c(Cl)ccc23)C2CCN1CC2` [Compound (R)-4, (R)-6,7-dichloro-N-(2,2-dimethylquinuclidin-3-yl)benzo[d]isoxazol-3-amine hydrochloride], the Ki falls from 3150 nM to 130 nM (24-fold).

Compared with `COc1ccc2c(N[C@@H]3C4CCN(CC4)C3(C)C)noc2c1` [Compound (R)-3, (R)—N-(2,2-dimethylquinuclidin-3-yl)-6-methoxybenzo[d]isoxazol-3-amine hydrochloride], `Cc1ccc2c(N[C@@H]3C4CCN(CC4)C3(C)C)noc2c1` [Compound (R)-6, (R)—N-(2,2-dimethylquinuclidin-3-yl)-6-methylbenzo[d]isoxazol-3-amine hydrochloride] is lower in Ki: > 10000 nM for the first, 3500 nM for the second. The second binds more tightly here.

Going from `COc1c(Cl)ccc2c(N[C@@H]3C4CCN(CC4)C3(C)C)noc12` [Compound (R)-5, (R)-6-chloro-N-(2,2-dimethylquinuclidin-3-yl)-7-methoxybenzo[d]isoxazol-3-amine hydrochloride] to `CCOc1c(Cl)ccc2c(N[C@@H]3C4CCN(CC4)C3(C)C)noc12` [Compound (R)-12, (R)-6-chloro-N-(2,2-dimethylquinuclidin-3-yl)-7-ethoxybenzo[d]isoxazol-3-amine hydrochloride], the Ki rises from 450 nM to > 10000 nM.

Going from `Cc1ccc2c(N[C@@H]3C4CCN(CC4)C3(C)C)noc2c1F` [Compound (R)-7, (R)—N-(2,2-dimethylquinuclidin-3-yl)-7-fluoro-6-methylbenzo[d]isoxazol-3-amine hydrochloride] to `Cc1ccc2c(N[C@@H]3C4CCN(CC4)C3(C)C)noc2c1Cl` [Compound (R)-13, (R)-7-chloro-N-(2,2-dimethylquinuclidin-3-yl)-6-methylbenzo[d]isoxazol-3-amine hydrochloride], the Ki falls from 2100 nM to 150 nM (14-fold). The second binds more tightly here.

Going from `CC1(C)[C@H](Nc2noc3c(Cl)c(F)ccc23)C2CCN1CC2` [Compound (R)-8, (R)-7-chloro-N-(2,2-dimethylquinuclidin-3-yl)-6-fluorobenzo[d]isoxazol-3-amine hydrochloride] to `Cc1c(Cl)ccc2c(N[C@@H]3C4CCN(CC4)C3(C)C)noc12` [Compound (R)-10, (R)-6-chloro-N-(2,2-dimethylquinuclidin-3-yl)-7-methylbenzo[d]isoxazol-3-amine hydrochloride], the Ki rises from 170 nM to 380 nM (2.2-fold).

`Cc1cc2onc(N[C@@H]3C4CCN(CC4)C3(C)C)c2cc1F` [Compound (R)-9, (R)—N-(2,2-dimethylquinuclidin-3-yl)-5-fluoro-6-methylbenzo[d]isoxazol-3-amine hydrochloride] and `CC1(C)[C@H](Nc2noc3cc(Cl)c(F)cc23)C2CCN1CC2` [Compound (R)-11, (R)-6-chloro-N-(2,2-dimethylquinuclidin-3-yl)-5-fluorobenzo[d]isoxazol-3-amine hydrochloride] cannot be ordered by Ki: > 10000 nM for the first, > 10000 nM for the second.

Going from `CC1(C)[C@H](Nc2noc3c(C(F)(F)F)c(Cl)ccc23)C2CCN1CC2` [Compound (R)-14, (R)-6-chloro-N-(2,2-dimethylquinuclidin-3-yl)-7-(trifluoromethyl)benzo[d]isoxazol-3-amine hydrochloride] to `FC(F)(F)c1c(Cl)ccc2c(N[C@@H]3C4CCN(CC4)C34CC4)noc12` [Compound (R)-29, (R)-6-chloro-N-(1′-azaspiro[cyclopropane-1,2′-bicyclo[2.2.2]octan]-3′-yl)-7-(trifluoromethyl)benzo[d]isoxazol-3-amine hydrochloride], the Ki falls from > 10000 nM to 4300 nM.

`Clc1ccc2c(N[C@@H]3C4CCN(CC4)C34CC4)noc2c1` [Compound (R)-16, (R)-6-chloro-N-(1′-azaspiro[cyclopropane-1,2′-bicyclo[2.2.2]octan]-3′-yl)benzo[d]isoxazol-3-amine] and `Cc1ccc2c(N[C@@H]3C4CCN(CC4)C34CC4)noc2c1` [Compound (R)-21, (R)-6-methyl-N-(1′-azaspiro[cyclopropane-1,2′-bicyclo[2.2.2]octan]-3′-yl) benzo[d]isoxazol-3-amine hydrochloride] are within 1.5-fold of each other in Ki: 1630 nM for the first, 1600 nM for the second.

Compared with `Fc1c(Cl)ccc2c(N[C@@H]3C4CCN(CC4)C34CC4)noc12` [Compound (R)-17, (R)-6-chloro-7-fluoro-N-(1′-azaspiro[cyclopropane-1,2′-bicyclo[2.2.2]octan]-3′-yl)benzo[d]isoxazol-3-amine hydrochloride], `Cc1ccc2c(N[C@@H]3C4CCN(CC4)C34CC4)noc2c1F` [Compound (R)-22, (R)-7-fluoro-6-methyl-N-(1′-azaspiro[cyclopropane-1,2′-bicyclo[2.2.2]octan]-3′-yl)benzo[d]isoxazol-3-amine hydrochloride] is 1.7-fold lower in Ki: 920 nM for the first, 540 nM for the second.

First: COc1ccc2c(N[C@@H]3C4CCN(CC4)C34CC4)noc2c1 [Compound (R)-18, (R)-6-methoxy-N-(1′-azaspiro[cyclopropane-1,2′-bicyclo[2.2.2]octan]-3′-yl)benzo[d]isoxazol-3-amine hydrochloride]
Second: COc1c(Cl)ccc2c(N[C@@H]3C4CCN(CC4)C34CC4)noc12 [Compound (R)-20, (R)-6-chloro-7-methoxy-N-(1′-azaspiro[cyclopropane-1,2′-bicyclo[2.2.2]octan]-3′-yl)benzo[d]isoxazol-3-amine hydrochloride]
The Ki of the first is higher: > 10000 nM for the first, 200 nM for the second. The second binds more tightly here.

First: Fc1ccc2c(N[C@@H]3C4CCN(CC4)C34CC4)noc2c1Cl [Compound (R)-23, (R)-7-chloro-6-fluoro-N-(1′-azaspiro[cyclopropane-1,2′-bicyclo[2.2.2]octan]-3′-yl)benzo[d]isoxazol-3-amine hydrochloride]
Second: Cc1c(Cl)ccc2c(N[C@@H]3C4CCN(CC4)C34CC4)noc12 [Compound (R)-25, (R)-6-chloro-7-methyl-N-(1′-azaspiro[cyclopropane-1,2′-bicyclo[2.2.2]octan]-3′-yl)benzo[d]isoxazol-3-amine hydrochloride]
The Ki of the first is 1.5-fold lower: 110 nM for the first, 170 nM for the second. The first binds more tightly here.

`Cc1cc2onc(N[C@@H]3C4CCN(CC4)C34CC4)c2cc1F` [Compound (R)-24, (R)-5-fluoro-6-methyl-N-(1′-azaspiro[cyclopropane-1,2′-bicyclo[2.2.2]octan]-3′-yl) benzo[d]isoxazol-3-amine hydrochloride] and `Fc1cc2c(N[C@@H]3C4CCN(CC4)C34CC4)noc2cc1Cl` [Compound (R)-26, (R)-6-chloro-5-fluoro-N-(1′-azaspiro[cyclopropane-1,2′-bicyclo[2.2.2]octan]-3′-yl)benzo[d]isoxazol-3-amine hydrochloride] are within 1.5-fold of each other in Ki: 3100 nM for the first, 2800 nM for the second.

`CCOc1c(Cl)ccc2c(N[C@@H]3C4CCN(CC4)C34CC4)noc12` [Compound (R)-27, (R)-6-chloro-7-ethoxy-N-(1′-azaspiro[cyclopropane-1,2′-bicyclo[2.2.2]octan]-3′-yl)benzo[d]isoxazol-3-amine hydrochloride] gave a Ki of 5600 nM.

molecular target: recombinantly expressed human α7-nAChR (Homo sapiens, UniProt P36544); assay: not given; settings: [125I] α-BTX radioligand, Feuerbach et al., Br. J. Pharmacol., 2014, read-out: Ki (lit); cited from earlier work
Sequence (P36544 23-502): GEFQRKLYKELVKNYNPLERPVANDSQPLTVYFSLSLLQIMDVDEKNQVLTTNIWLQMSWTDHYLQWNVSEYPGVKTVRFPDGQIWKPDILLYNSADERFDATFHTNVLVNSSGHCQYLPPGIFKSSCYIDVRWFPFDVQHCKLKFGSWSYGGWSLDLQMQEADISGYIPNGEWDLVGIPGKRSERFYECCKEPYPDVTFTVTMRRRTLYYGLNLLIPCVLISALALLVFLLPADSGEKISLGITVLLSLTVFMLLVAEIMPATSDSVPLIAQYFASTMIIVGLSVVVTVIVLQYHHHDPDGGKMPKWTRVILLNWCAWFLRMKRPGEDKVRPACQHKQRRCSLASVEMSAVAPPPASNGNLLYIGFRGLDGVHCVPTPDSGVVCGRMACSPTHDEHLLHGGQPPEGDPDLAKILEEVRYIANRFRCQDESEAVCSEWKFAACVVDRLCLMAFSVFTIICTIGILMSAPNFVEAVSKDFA

For `Cc1ccc(-c2ccc(OC3CN4CCC3CC4)cn2)cc1` (centres unmarked) [AQW051], the Ki is listed as 28 nM.

molecular target: human α7 nAChR (Homo sapiens, UniProt P36544); assay: not given; assay type: binding; settings: above described assay provided by Cerep
Sequence (P36544 23-502): as above

Work on `Cc1ccc(-c2ccc(OC3CN4CCC3CC4)cn2)cc1` (centres unmarked) [AQW051] yielded a Ki of 255 nM.

— patent US10428062B2, “Geminal substituted aminobenzisoxazole compounds as agonists of α7-nicotinic acetylcholine receptors” (Forum Pharmaceuticals, Inc., priority 2015, dated 2019)
